# Assay results taken from ChEMBL document CHEMBL4831513, “Discovery of quinazoline derivatives as a novel class of potent and in vivo efficacious LSD1 inhibitors by drug repurposing” (Eur J Med Chem, 2021).
# pIC50: −log10 of the molar value.
# Target: Lysine-specific histone demethylase 1A (Homo sapiens, UniProt O60341)
# Description: Inhibition of recombinant full length LSD1 (unknown origin) transfected in Escherichia coli BL21 (DE) using H3K4me2 as substrate by flourescence based analysis
row,SMILES,pIC50
1,COCCOc1cc2ncnc(Nc3ccc(F)cc3)c2cc1OCCOC,< 4.30
2,C#Cc1cccc(Nc2ncnc3cc(OC)c(OC)cc23)c1,< 4.30
3,COCCOc1cc2ncnc(Sc3nnnn3C)c2cc1OCCOC,< 4.30
4,COCCOc1cc2ncnc(Oc3cccc(Cl)c3)c2cc1OCCOC,< 4.30
5,COCCOc1cc2ncnc(Sc3ccc(Cl)cc3)c2cc1OCCOC,< 4.30
6,COCCOc1cc2ncnc(Sc3ccccn3)c2cc1OCCOC,< 4.30
7,COCCOc1cc2ncnc(Oc3ccc(OC)cc3)c2cc1OCCOC,< 4.30
8,COCCOc1cc2ncnc(Sc3ccc(C)cc3)c2cc1OCCOC,< 4.30
9,C#Cc1cccc(Nc2ncnc3ccccc23)c1,< 4.30
10,COCCOc1cc2ncnc(Nc3ccc4c(c3)OCO4)c2cc1OCCOC,< 4.30
